Activity calls are given as the source filed them. The rule behind the calls is not given here.
How the values were obtained:
Format in all cases: functional, cell-based
HL-60 [1] = assay: Induction of apoptosis in HL60 cells assessed as chromatin condensation at 3 uM after 4 hrs by fluorescence microscopy; conditions: Homo sapiens
U-937 [2] = assay: Induction of apoptosis in U937 cells assessed as caspase 3 cleavage at 3 uM by Western blot; conditions: Homo sapiens
HL-60 [3] = assay: Induction of apoptosis in HL60 cells assessed as PARP cleavage at 3 uM by Western blot; conditions: Homo sapiens
HL-60 [4] = assay: Antiproliferative activity against HL60 cells by MTT assay; conditions: Homo sapiens
HL-60 [5] = assay: Induction of apoptosis in HL60 cells assessed as DNA fragmentation at 3 uM after 4 hrs by gel electrophoresis; conditions: Homo sapiens
SK-MEL-1 = assay: Antiproliferative activity against human SK-MEL1 cells by MTT assay
HL-60 [6] = assay: Induction of apoptosis in HL60 cells assessed as cytochrome C release at 3 uM by Western blot; conditions: Homo sapiens
HL-60 [7] = assay: Induction of apoptosis in HL60 cells assessed as morphological changes at 3 uM after 4 hrs by phase contrast microscopy; conditions: Homo sapiens
U-937 [8] = assay: Antiproliferative activity against human U937 cells by MTT assay
HL-60 [9] = assay: Induction of apoptosis in HL60 cells assessed as caspase 3 cleavage at 3 uM by Western blot; conditions: Homo sapiens
U-937 [10] = assay: Induction of apoptosis in U937 cells assessed as DNA fragmentation at 3 uM after 4 hrs by gel electrophoresis; conditions: Homo sapiens

Row | IC50 (HL-60 [4]) [nM] | IC50 (SK-MEL-1) [nM] | IC50 (U-937 [8]) [nM] | Structure (SMILES) | Activity (HL-60 [1]) | Activity (U-937 [2]) | Activity (HL-60 [3]) | Activity (HL-60 [5]) | Activity (HL-60 [6]) | Activity (HL-60 [7]) | Activity (HL-60 [9]) | Activity (U-937 [10])
1 | 290 | 2090 | 240 | C=C(Br)C(=O)Nc1ccc2[nH]c(C(=O)NCCCNc3nsc4nc5ccccc5n34)cc2c1 | Active | Active | Active | Active | Active | Active | Active | Active
2 | 1720 | 8950 | 740 | C=C(Br)C(=O)Nc1ccc2oc(C(=O)NCCCCCCNc3nsc4nc5ccccc5n34)cc2c1 | Active | Active | Active | Active | Active | Active | Active | Active
3 | 1240 | 8040 | 910 | C=C(Br)C(=O)Nc1ccc2sc(C(=O)NCCCCCCNc3nsc4nc5ccccc5n34)cc2c1 | Active | Active | Active | Active | Active | Active | Active | Active
4 | 840 | 4500 | 890 | C=C(Br)C(=O)Nc1ccc2c(c1)cc(C(=O)NCCCCCCNc1nsc3nc4ccccc4n13)n2C | Active | Active | Active | Active | Active | Active | Active | Active
5 | 550 | 3020 | 400 | C=C(Br)C(=O)Nc1ccc2[nH]c(C(=O)NCCCCCCNc3nsc4nc5ccccc5n34)cc2c1 | Active | Active | Active | Active | Active | Active | Active | Active

Reference: ChEMBL document CHEMBL1139187, “Hybrid molecules containing benzo[4,5]imidazo[1,2-d][1,2,4]thiadiazole and alpha-bromoacryloyl moieties as potent apoptosis inducers on human myeloid leukaemia cells” (Bioorg Med Chem Lett, 2007)
